Source: article PMC7076710, “Synthesis, Identification, and Structure–Activity Relationship Analysis of GATA4 and NKX2-5 Protein–Protein Interaction Modulators” (Journal of Medicinal Chemistry, 2019)
Blank lines part the entries; values can stand above or below the molecule they belong to.

Target: T1, GATA4–NKX2-5 transcriptional synergy (Mus musculus, UniProt P42582+Q08369)
T1 construct: expressed in transfected cells; host or cells: COS-1
Assay: GATA4–NKX2-5 transcriptional synergy luciferase reporter assay (3xNKE reporter, COS-1 cells)
Assay type: cell-based

[1] = COS-1, compound at 3 µM, luciferase reporter activity, % of control
[2] = COS-1, compound at 10 µM, luciferase reporter activity, % of control
[3] = COS-1, compound 3 µM, luciferase reporter activity, spread in separate STDEV column
[4] = COS-1, compound 10 µM, luciferase reporter activity, spread in separate STDEV column
[5] = 3 µM compound, GATA4–NKX2-5 transcriptional synergy reporter, COS-1 cells
[6] = 10 µM compound, GATA4–NKX2-5 transcriptional synergy reporter, COS-1 cells
[7] = COS-1, compound 3 µM, luciferase reporter activity relative to control
[8] = COS-1, compound 10 µM, luciferase reporter activity relative to control
[9] = COS-1, GATA4-NKX2-5 transcriptional synergy luciferase reporter assay, compound at 3 µM
[10] = COS-1, GATA4-NKX2-5 transcriptional synergy luciferase reporter assay, compound at 10 µM

T1 sequence (Q08369 whole entry): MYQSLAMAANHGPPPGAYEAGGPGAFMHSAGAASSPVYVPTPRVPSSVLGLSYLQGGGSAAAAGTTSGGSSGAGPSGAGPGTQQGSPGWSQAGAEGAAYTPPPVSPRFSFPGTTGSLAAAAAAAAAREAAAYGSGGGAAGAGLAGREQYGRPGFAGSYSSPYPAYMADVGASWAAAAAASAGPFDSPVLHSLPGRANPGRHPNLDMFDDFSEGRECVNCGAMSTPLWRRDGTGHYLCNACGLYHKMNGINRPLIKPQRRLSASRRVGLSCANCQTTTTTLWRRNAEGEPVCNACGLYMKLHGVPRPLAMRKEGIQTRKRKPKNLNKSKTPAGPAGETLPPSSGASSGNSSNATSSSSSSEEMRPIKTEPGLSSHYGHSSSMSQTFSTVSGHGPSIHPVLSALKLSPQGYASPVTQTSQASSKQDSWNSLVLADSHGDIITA
T1 sequence (P42582 whole entry): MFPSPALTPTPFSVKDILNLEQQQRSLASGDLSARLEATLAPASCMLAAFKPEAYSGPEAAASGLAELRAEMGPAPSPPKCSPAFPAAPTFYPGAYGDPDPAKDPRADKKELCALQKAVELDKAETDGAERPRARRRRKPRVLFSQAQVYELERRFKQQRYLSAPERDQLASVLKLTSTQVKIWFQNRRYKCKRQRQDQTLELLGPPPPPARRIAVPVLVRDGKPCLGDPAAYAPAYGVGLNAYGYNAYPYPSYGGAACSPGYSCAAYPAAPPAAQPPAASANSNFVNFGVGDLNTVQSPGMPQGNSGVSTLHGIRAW

SMILES: Cc1onc(-c2ccccc2)c1C(=O)Nc1ccc(C(=O)OCC#N)cc1 [Compound 10a, Cyanomethyl 4-(5-Methyl-3-phenylisoxazole-4-carboxamido)benzoate]
activity at 3 µM [5]: 95%

SMILES: CCN(CC)c1ccc(C(=O)Nc2c(-c3ccccc3)noc2C)cc1 [Compound 27]
activity at 3 µM [1]: 98.5%

SMILES: CCN(CC)c1ccc(/N=C(\SC)c2c(-c3ccccc3)noc2C)cc1 [Compound 24a]
activity at 3 µM [1]: 72.7%

SMILES: CCN(CC)c1ccc(NC(=O)c2ccoc2CCc2cccs2)cc1 [Compound 47i]
activity at 3 µM [5]: 89% | activity at 10 µM [6]: 103%

SMILES: CCN(CC)c1ccc(NC(=O)c2c(-c3ccc(-c4ccc(F)cc4)cc3)noc2C)cc1 [Compound 39j]
activity at 3 µM [5]: 115% | activity at 10 µM [6]: 114%

SMILES: CCN(CC)c1ccc(/N=C/c2c(-c3ccccc3)noc2C)cc1 [Compound 19, (E)-N^1,N^1-Diethyl-N^4-[(5-methyl-3-phenylisoxazol-4-yl)methylene]benzene-1,4-diamine]
activity at 3 µM [5]: 102% | activity at 10 µM [6]: 99.7%

SMILES: Cc1onc(-c2ccccc2)c1NC(=O)c1ccc(N2CCN(C)CC2)cc1 [Compound 67]
activity at 3 µM [1]: 90.6% | activity at 10 µM [2]: 124%

SMILES: C#Cc1ccc(NC(=O)c2c(-c3ccccc3)noc2C)cc1 [Compound 15, N-(4-Ethynylphenyl)-5-methyl-3-phenylisoxazole-4-carboxamide]
activity at 3 µM [5]: 93.2%

SMILES: CCN(CC)c1ccc(NC(=O)C2CCCC2)cc1 [Compound 57]
activity at 3 µM [3]: 112% | activity at 10 µM [4]: 115%

SMILES: Cc1onc(-c2ccccc2)c1C(=O)N(C)c1ccc(C(=O)O)cc1 [Compound 68]
activity at 3 µM [3]: 117% | activity at 10 µM [4]: 127%

Continued, values first:

activity at 3 µM [1]: 104% | activity at 10 µM [2]: 71.9%
SMILES: COc1ccc(-c2cc(N)nn2C(=O)c2ccc(C(C)(C)C)cc2)cc1 [SI112]

activity at 3 µM [3]: 115% | activity at 10 µM [4]: 104%
SMILES: CCSCCOC(=O)c1ccc(NC(=O)c2c(-c3ccccc3)noc2C)cc1 [SI1]

activity at 3 µM [1]: 98.9% | activity at 10 µM [2]: 102%
SMILES: CN(C)c1ccc(/C=N/c2c(-c3ccccc3)nc3ncccn23)cc1 [SI46]

activity at 3 µM (COS-1, 3 µM, luciferase reporter activity, % of control): 114% | activity at 10 µM (COS-1, 10 µM, luciferase reporter activity, % of control): 87.2%
SMILES: CCN(C(=O)c1c(-c2ccccc2)noc1C)c1ccc(Nc2ccccc2)cc1 [SI6]

activity at 3 µM [1]: 108% | activity at 10 µM [2]: 87.4%
SMILES: Cc1onc(-c2ccccc2)c1C(=S)Nc1ccc(OCc2ccccc2)cc1 [SI37]

activity at 3 µM [3]: 108% | activity at 10 µM [4]: 100%
SMILES: CCN(CC)c1ccc(NC(=O)c2c(C)noc2-c2cc(-c3ccco3)on2)cc1 [SI76]

activity at 3 µM [5]: 102% | activity at 10 µM [6]: 92.8%
SMILES: CCN(CC)c1ccc(NCc2c(-c3c(Cl)cccc3Cl)noc2C)cc1 [SI18]

activity at 3 µM [7]: 101% | activity at 10 µM [8]: 100%
SMILES: COC(=O)c1c(-c2ccccc2)nnn1CC1CCCO1 (centres unmarked) [SI61]

activity at 3 µM [1]: 79.8% | activity at 10 µM [2]: 108%
SMILES: COc1ccc(NC(=O)n2nc(N)cc2-c2ccc(OC)cc2)cc1 [SI99]

activity at 3 µM [7]: 82.9% | activity at 10 µM [8]: 82.5%
SMILES: CCN(CC)c1ccc(N(CCC2OCCO2)C(=O)c2c(-c3cccc([N+](=O)[O-])c3)noc2C)cc1 [SI29]

activity at 3 µM [1]: 94.2% | activity at 10 µM [2]: 89.2%
SMILES: COc1ccc(-c2cc(N=Cc3ccc(N(C)C)cc3)n[nH]2)cc1 [SI91]

activity at 3 µM [5]: 88.1% | activity at 10 µM [6]: 68.4%
SMILES: Cc1cc(NC(=O)c2cnn(C)c2-c2ccccc2)ccc1C(C)C [SI87]

activity at 3 µM [5]: 123% | activity at 10 µM [6]: 106%
SMILES: Cc1onc(-c2ccccc2)c1C(=O)Nc1ccc2c(c1)C(=O)CC(C)(C)O2 [SI39]

activity at 3 µM [9]: 108% | activity at 10 µM [10]: 102%
SMILES: O=C(Nc1ccc(F)c(Cl)c1)c1cnoc1-c1ccco1 [SI124]

activity at 3 µM [9]: 85.4% | activity at 10 µM [10]: 88.3%
SMILES: CCN(CC)c1ccc(NC(=O)c2c(-c3cccc(Br)c3)noc2C)c(C)c1 [SI131]

activity at 3 µM [1]: 95.3% | activity at 10 µM [2]: 112%
SMILES: Cc1onc(-c2ccccc2)c1NC(=O)c1ccc(CN(C)C)cc1 [SI33]

activity at 3 µM [3]: 89.2% | activity at 10 µM [4]: 71.6%
SMILES: Cc1onc(-c2ccccc2)c1C(=O)Nc1ccc(OCC(F)(F)F)c(Cl)c1 [SI13]
